Measurements reported in patent publication US20150126534A1, “ENZYME AND RECEPTOR MODULATION” (Chroma Therapeutics Ltd, priority 2005, published 2015).
Each block holds one compound with its values, some of them ahead of it.

Tests used:
[1] = system: U937 cells (monocytic cell line); test: Cell proliferation inhibition assay (WST-1), U937; format: cell-based; settings: for IC50: Homo sapiens, U-937, read-out: Cell proliferation IC50 nM (U937 cells); for selectivity between a monocytic and non-monocytic cell line (cell proliferation): U937 versus HCT116
Method: (§1) Following 24 h of growth cells were treated with compound. Plates were then re-incubated for a further 72-96 h before a WST-1 cell viability assay was conducted according to the suppliers (Roche Applied Science) instructions.
(§2) Data were expressed as a percentage inhibition of the control, measured in the absence of inhibitor, as follows: —
(§3) where S^i is the signal in the presence of inhibitor and S^o is the signal in the presence of DMSO.
(§4) Dose response curves were generated from 8 concentrations (top final concentration 10 μM, with 3-fold dilutions), using 6 replicates.

[2] = system: carboxylesterase (U937 cell extract); test: Broken cell carboxylesterase assay, U937 cell extract; format: in vitro ADME; settings: U937 versus HCT116
Method: U937 or HCT 116 tumour cells (˜10^9) were washed in 4 volumes of Dulbeccos PBS (˜1 litre) and pelleted at 525 g for 10 min at 4° C. This was repeated twice and the final cell pellet was resuspended in 35 ml of cold homogenising buffer (Trizma 10 mM, NaCl 130 mM, CaCl2 0.5 mM pH 7.0 at 25° C.). Homogenates were prepared by nitrogen cavitation (700 psi for 50 min at 4° C.). The homogenate was kept on ice and supplemented with a cocktail of inhibitors at final concentrations of: • Leupeptin 1 μM • Aprotinin 0.1 μM • E64 8 μM • Pepstatin 1.5 μM • Bestatin 162 μM • Chymostatin 33 μM
After clarification of the cell homogenate by centrifugation at 525 g for 10 min, the resulting supernatant was used as a source of esterase activity and was stored at −80° C. until required.
Hydrolysis of esters to the corresponding carboxylic acids can be measured using the cell extract, prepared as above. To this effect cell extract (˜30 μg/total assay volume of 0.5 ml) was incubated at 37° C. in a Tris-HCl 25 mM, 125 mM NaCl buffer, pH 7.5 at 25° C. At zero time the ester (substrate) was then added at a final concentration of 2.5 μM and the samples were incubated at 37° C. for the appropriate time (usually 0 or 80 min). […] After centrifugation at 12000 g for 5 min, samples were analysed for the ester and its corresponding carboxylic acid at room temperature by LCMS (Sciex API 3000, HP1100 binary pump, CTC PAL). […]

[3] = system: HCT116 (non-monocytic cell line); test: Cell proliferation inhibition assay (WST-1), HCT116; format: cell-based; settings: for Ratio IC50 cell/enzyme: HCT116 cell proliferation IC50 / DHFR enzyme IC50; for IC50: Homo sapiens, HCT-116, HCT116 non-monocytic cell line, read-out: Cell proliferation IC50 nM (HCT116)
Method: as §1, §2, §3, §4

PI 3-kinase γ = molecular target: T1, PI 3-kinase γ (Homo sapiens, UniProt P48736); test: PI 3-kinase γ inhibition assay (HTRF); format: biochemical; settings: 100 μM MgATP; read-out: Enzyme inhibition IC50 nM (PI3-Kinase)
T1 construct: recombinant N-terminally His6-tagged, full length human enzyme; His6 (N); purchased Upstate (Dundee, UK), assay run by the vendor; host or cells: baculovirus / Sf21 insect cells
Excerpt: The measurement of PI 3-kinase γ activity is dependent upon the specific and high affinity binding of the GRP1 pleckstrin homology (PH) domain to PIP3, the product of PI 3-kinase activity. A complex is formed between europium-labelled anti-GST monoclonal antibody, a GST-tagged GRP1 PH domain, biotinylated PIP3 and streptavidin-allophycocyanin (APC). This complex generates a stable time-resolved fluorescence resonance energy transfer (FRET) signal, which is diminished by competition of PIP3, generated in the PI 3-kinase assay, with the biotinylated PIPS.
The reaction was initiated by the addition of the MgATP mix. After incubation for 30 minutes at room temperature, the reaction was stopped by the addition of 5 μl of stop solution containing EDTA and biotinylated phosphatidylinositol-3,4,5-trisphosphate. Finally, 5 μl of detection buffer was added, which contained europium-labelled anti-GST monoclonal antibody, GST-tagged GRP1 PH domain and streptavidin-APC. The plate was then read in time-resolved fluorescence mode and the homogenous time-resolved fluorescence (HTRF) signal was determined according to the formula HTRF=10000×(Em665 nm/Em620 nm).
Duplicate data points were generated from a ½ log dilution series of a stock solution of compound in DMSO. Nine dilutions steps were made from a top final concentration of 10 μM, and a ‘no compound’ blank was included. HTRF ratio data were transformed into % activity of controls and analysed with a four parameter sigmoidal dose-response (variable slope) application. The concentration giving 50% inhibition (1050) was determined.

[4] = system: TNFα production in human whole blood; test: LPS-stimulation of human whole blood, TNF-α ELISA; format: cell-based; settings: for IC50: Homo sapiens, LPS 100 ng/ml, 6 h, read-out: Inhibition of TNFα production in human whole blood IC50; for Ratio IC50 WB/enzyme: whole blood TNFα IC50 / PI3-Kinase IC50
Method: Whole blood was taken by venous puncture using heparinised vacutainers (Becton Dickinson) and diluted in an equal volume of RPMI1640 tissue culture media. 100 μl was plated in V-bottomed 96 well tissue culture plates. Inhibitor was added in 100 μl of RPMI1640 media, and 2 h later the blood was stimulated with LPS (E coli strain 005:B5, Sigma) at a final concentration of 100 ng/ml and incubated at 37° C. in 5% CO2 for 6 h. TNF-α levels were measured from cell-free supernatants by sandwich ELISA (R&D Systems #QTA00B).

[5] = system: HDAC - Hela cell nuclear extract; test: Histone deacetylase inhibitory activity assay (Fluor de Lys); format: biochemical; settings: read-out: Enzyme inhibition IC50 nM (HDAC - Hela cell nuclear extract)
Method: The ability of compounds to inhibit histone deacetylase activities was measured using the commercially available HDAC fluorescent activity assay from Biomol. […] Histone deacetylase activity from crude nuclear extract derived from HeLa cells was used for screening. The preparation, purchased from 4C (Seneffe, Belgium), was prepared from HeLa cells harvested whilst in exponential growth phase. […] Acid. […] The final buffer composition was 20 mM Hepes, 100 mM KCl, 0.2 mM EDTA, 0.5 mM DTT, 0.2 mM PMSF and 20% (v/v) glycerol.

[6] = U937 cell proliferation IC50 / DHFR enzyme IC50

T1 sequence (P48736 whole entry): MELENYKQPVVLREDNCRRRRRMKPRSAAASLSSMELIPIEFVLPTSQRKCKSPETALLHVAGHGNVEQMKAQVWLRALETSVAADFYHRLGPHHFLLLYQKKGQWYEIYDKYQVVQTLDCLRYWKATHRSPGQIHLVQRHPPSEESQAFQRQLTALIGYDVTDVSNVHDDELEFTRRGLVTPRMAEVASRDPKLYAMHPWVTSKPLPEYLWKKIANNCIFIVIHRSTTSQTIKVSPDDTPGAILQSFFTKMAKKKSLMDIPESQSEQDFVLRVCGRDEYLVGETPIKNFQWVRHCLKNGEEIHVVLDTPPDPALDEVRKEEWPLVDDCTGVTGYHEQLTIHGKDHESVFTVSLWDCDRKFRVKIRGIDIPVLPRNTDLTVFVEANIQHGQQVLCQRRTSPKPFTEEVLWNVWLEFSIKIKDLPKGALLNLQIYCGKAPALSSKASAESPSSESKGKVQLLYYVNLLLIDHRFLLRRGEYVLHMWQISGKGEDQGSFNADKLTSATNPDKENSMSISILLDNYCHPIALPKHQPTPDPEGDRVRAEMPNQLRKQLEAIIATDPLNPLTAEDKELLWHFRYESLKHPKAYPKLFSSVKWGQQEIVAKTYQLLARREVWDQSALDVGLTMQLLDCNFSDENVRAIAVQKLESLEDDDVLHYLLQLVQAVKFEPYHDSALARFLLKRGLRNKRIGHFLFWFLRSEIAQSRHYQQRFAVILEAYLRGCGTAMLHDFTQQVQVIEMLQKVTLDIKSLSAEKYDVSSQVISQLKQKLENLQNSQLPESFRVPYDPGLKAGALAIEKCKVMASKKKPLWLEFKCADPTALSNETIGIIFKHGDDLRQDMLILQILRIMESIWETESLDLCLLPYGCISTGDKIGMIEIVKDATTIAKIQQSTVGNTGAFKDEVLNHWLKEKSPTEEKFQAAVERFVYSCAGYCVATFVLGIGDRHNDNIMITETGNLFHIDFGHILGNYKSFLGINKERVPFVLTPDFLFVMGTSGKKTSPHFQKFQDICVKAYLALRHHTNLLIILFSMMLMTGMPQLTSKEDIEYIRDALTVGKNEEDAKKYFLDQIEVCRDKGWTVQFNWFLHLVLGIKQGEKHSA

SMILES: CC(=O)Nc1nc(C)c(-c2ccc(Cl)c(S(C)(=O)=O)c2)s1 [Compound 20, N-[5-(4-Chloro-3-methanesulfonyl-phenyl)-4-methyl-thiazol-2-yl]-acetamide, reference compound]
- IC50 (PI 3-kinase γ): 500 nM
- IC50 [4]: 8500 nM
- Ratio IC50 WB/enzyme [4]: 17

SMILES: Cc1nc(NC(=O)CC[C@H](N)C(=O)OC(C)(C)C)sc1-c1ccc(Cl)c(S(C)(=O)=O)c1 [Compound 23, (S)-2-Amino-4-[5-(4-chloro-3-methanesulfonyl-phenyl)-4-methyl-thiazol-2-ylcarbamoyl]-butyric acid tert-butyl ester]
- IC50 (PI 3-kinase γ): 7100 nM
- IC50 [4]: 5200 nM
- Ratio IC50 WB/enzyme [4]: 0.75

SMILES: O=C(CCCCCCC(=O)Nc1cccc(CN[C@H](C(=O)O)c2ccccc2)c1)NO [Compound 9, (S)-[3-(7-Hydroxycarbamoyl-heptanoylamino)-benzylamino]-phenyl-acetic acid]
- Cell proliferation IC50 nM (U937 cells) ([1]; U937 monocytic cell line): Inactive
- IC50 [5]: 70 nM

SMILES: O=C(CCCCCCC(=O)Nc1cccc(CN[C@H](C(=O)OC2CCCC2)c2ccccc2)c1)NO [Compound 8, (S)-[3-(7-Hydroxycarbamoyl-heptanoylamino)-benzylamino]-phenyl-acetic acid cyclopentyl ester]
- IC50 ([1]; U937 monocytic cell line): 50 nM
- Ratio IC50 cell/enzyme ([1]; U937 cell proliferation IC50 / HDAC enzyme IC50): 0.5
- IC50 [5]: 100 nM

Now from value to compound, other results behind:

- IC50 ([1]; U937 monocytic cell line): 310 nM
- IC50 [3]: 6900 nM
SMILES: Cc1c(CNc2ccc(OCC[C@H](NC3CCCCC3)C(=O)OC3CCCC3)cc2)cnc2nc(N)nc(N)c12 [Compound 4, (S)-2-Cyclohexylamino-4-{4-[(2,4-diamino-5-methyl-pyrido[2,3-d]pyrimidin-6-ylmethyl)-amino]-phenoxy}-butyric acid cyclopentyl ester]
- Ratio IC50 cell/enzyme [1, 6]: 0.3
- selectivity between a monocytic and non-monocytic cell line (cell proliferation) [1]: significantly more anti-proliferative in monocytic cell lines then non-monocytic cell lines
- cleavage of ester in monocytic versus non-monocytic cell lines [2]: selective cleavage in monocytic but not non-monocytic cell lines
- Ratio IC50 cell/enzyme [3]: 6.6

- IC50 ([1]; U937 monocytic cell line): 310 nM
- IC50 [3]: 6700 nM
SMILES: Cc1c(CNc2ccc(CN[C@@H](CC(C)C)C(=O)OC3CCCC3)cc2)cnc2nc(N)nc(N)c12 [Compound 5, (S)-2-{4-[(2,4-Diamino-5-methyl-pyrido[2,3-d]pyrimidin-6-ylmethyl)-amino]-benzylamino}-4-methyl-pentanoic acid cyclopentyl ester]
- Ratio IC50 cell/enzyme [1, 6]: 0.8
- selectivity between a monocytic and non-monocytic cell line (cell proliferation) [1]: significantly more anti-proliferative in monocytic cell lines then non-monocytic cell lines
- cleavage of ester in monocytic versus non-monocytic cell lines [2]: selective cleavage in monocytic but not non-monocytic cell lines
- Ratio IC50 cell/enzyme [3]: 1.7

- IC50 (PI 3-kinase γ): 2700 nM
- IC50 [4]: 400 nM
SMILES: Cc1nc(NC(=O)CC[C@H](N)C(=O)OC2CCCC2)sc1-c1ccc(Cl)c(S(C)(=O)=O)c1 [Compound 21, (S)-2-Amino-4-[5-(4-chloro-3-methanesulfonyl-phenyl)-4-methyl-thiazol-2-ylcarbamoyl]-butyric acid cyclopentyl ester]
- Ratio IC50 WB/enzyme [4]: 0.15
